Experimental data reported in US20240207299A1, “PYRROLOPYRIMIDINE NUCLEOSIDES FOR TREATING OR PREVENTING A SARS-COV-2 INFECTION” (Chimerix, Inc., priority 2021, published 2024).
“And” between values parts separate entries of the source, which are not always exact repeats. Equal values may be shown once. “Also recorded” adds a separate entry of the source. Read-outs that look alike come from different tables or passages of the source.

How the values were obtained:
[1] = tested on: SARS-CoV-2; conditions: MRC5 cells; cited from earlier work
[2] = tested on: SARS-CoV-2; test: hACE2 transgenic mouse model of SARS-CoV-2 disease; assay type: in vivo, human ACE2 transgenic mouse; conditions: 50 mg/kg once per day intraperitoneal, Day 5
[3] = tested on: SARS-CoV-2 (USA-WA1/2020); test: microbe, parasite or virus in culture; assay type: cell-based; conditions: Severe acute respiratory syndrome coronavirus 2, Caco-2, 72 h, read-out: EC90: Calculated concentration to reduce virus yield by 1 log (90%) (converted)
[4] = tested on: uninfected cells; test: Cytotoxicity in uninfected cells, Sigma TOX7 LDH release; assay type: cell-based; conditions: any concentration
Description: For each assay, percent inhibition was calculated by comparing luciferase activity in cells treated with compound to that in cells treated with vehicle (DMSO) control. Cells were treated with 2.5 μM remdesivir as a control where indicated. Cytotoxicity was measured in uninfected cells in parallel assays using the Sigma TOX7 assay for LDH release.

[5] = tested on: SARS-CoV-2 (USA-WA1/2020); test: Neutral red CPE assay in Vero E6 cells; assay type: cell-based; conditions: for EC50: Severe acute respiratory syndrome coronavirus 2, Vero C1008, 72 h, read-out: EC50: 50% effective antiviral concentration
[6] = Cytotoxicity without virus, neutral red, Vero E6 cells; assay type: cell-based; conditions: African green monkey; Neutral Red in Vero E6 cells; read-out: CC50: 50% cytotoxic concentration of compound without virus added
Description: Neutral red assay in Vero E6 cells: Compound dilutions were added to 96-well plates containing 80-100% confluent Vero E6 cells. Cells were incubated with compound for 1-2 hours and then infected with virus at a low MOI to achieve >80% cytopathic effect (CPE) within 5 days of incubation. On day 3 post-infection, CPE was quantitated by neutral red staining. Briefly cells were stained with neutral red for 2 hours, dye removed, and wells rinsed with PBS. The incorporated dye was extracted in Sorensen citrate buffer/ethanol (50:50) and absorbance measured on a spectrophotometer at 540 nm. Compound dilution that reduced virus CPE by 50% (EC50) was calculated along with cytotoxicity in the absence of virus infection (CC50).

[7] = tested on: SHC014; test: microbe, parasite or virus in culture; assay type: cell-based, bat-derived SARS-like coronavirus; conditions: HAE cells
[8] = Oral GLP toxicology; conditions: rats/dogs
[9] = tested on: Murine hepatitis virus (MHV) strain MHV-A59 (nLuc reporter); test: microbe, parasite or virus in culture; assay type: cell-based; conditions: Murine coronavirus
[10] = Tolerability of single inhaled aerosol dose in healthy BALB/c mice; assay type: in vivo; conditions: 5 mg aerosol single dose; dosing period and 8-hour post-dose period
Description: Tolerability and pharmacokinetics (PK) of a single dose of Compound 1 delivered as aerosol via nebulized liquid in a flow-past pie-chamber model to healthy BALB/c mice. Compound 1 and Compound 60 concentrations were evaluated in plasma and lung tissue were determined.
Nine female, 9-11 week old BALB/c mice were housed in 9 individual wedges of the inhalation device described above. The input holes of the remaining 3 wedges were taped off to maximize delivery to the 9 mice. A liquid formulation of 5 mg/mL Compound 1 (pH 6.0) was prepared immediately prior to dosing and dispensed into the compressor chamber. The entire contents (9 mL) of the formulation solution were aerosolized and delivered to the 9 mice over a period of 20-30 min. This method delivered 5 mg Compound 1 to each wedge containing a single mouse over the period of nebulization.
Mice were monitored for adverse clinical signs with special attention given to signs related to eye irritation.

[11] = in vivo; conditions: female, BALB/c, mouse, 5 mg
[12] = Genotoxicity / mitotoxicity
[13] = tested on: SARS-CoV-2 strain USA-WA1 2020 (nLuc reporter); test: microbe, parasite or virus in culture; assay type: cell-based
[14] = tested on: WIV1; test: microbe, parasite or virus in culture; assay type: cell-based, bat-derived SARS-like coronavirus; conditions: HAE cells
[15] = Healthy volunteer Phase 1 study of oral Compound 1; conditions: healthy volunteers
[16] = individual animals; for Plasma Compound 1 Concentration: 5 mg delivered dose, aerosol, single dose
[17] = Cytotoxicity, neutral red, Caco2 cells; assay type: cell-based; conditions: human, read-out: CC50: 50% cytotoxic concentration of compound without virus added
Description: Virus yield reduction assay in Caco-2 cells: The virus yield reduction (VYR) assay set up was similar to that described for the neutral red assay excepting Caco2 cells were used. On day 3 post-infection, cell culture supernatant from wells was collected and infectious virus determined by running a standard endpoint dilution CCID50 assay. Compound dilution that reduced virus yield by 1 log10 was calculated. After collection of cell culture supernatant from wells on day 3 post-infection, plates were stained as described in the neutral red assay to determine CC50 in Caco2 cells.

[18] = Severe acute respiratory syndrome-related coronavirus, HAE
[19] = Mean Plasma Compound 1 Concentration
[20] = Plasma Compound 1 Concentration
[21] = 5 mg Compound 1 aerosol, 1 hr post-dose
[22] = 5 mg Compound 1 aerosol, 3 hr post-dose

CNc1nc(N)nc2c1ncn2[C@@H]1O[C@H](COP(=O)(N[C@@H](C)C(=O)OC(C)C)Oc2ccccc2)[C@@H](O)[C@@]1(C)F.CNc1nc(N)nc2c1ncn2[C@@H]1O[C@H](COP(=O)(N[C@@H](C)C(=O)OC(C)C)Oc2ccccc2)[C@@H](O)[C@@]1(C)F.O=S(=O)(O)O (stereo partly shown) [AT-527]
antiviral activity against SARS-CoV-2 [1]: lack of antiviral activity against SARS-CoV-2

Cc1nc(N)c2c(C(N)=O)cn([C@@H]3O[C@H](CO)[C@@H](O)[C@H]3O)c2n1 [Compound 1, 4-amino-7-((2R,3R,4S,5R)-3,4-dihydroxy-5-(hydroxymethyl)tetrahydrofuran-2-yl)-2-methyl-7H-pyrrolo[2,3-d]pyrimidine-5-carboxamide]
average Cq, virus genome in lungs (qPCR) ([2]; started 4-6 h after challenge, vehicle Cq 23): 22 | effect on virus genome levels in lungs / efficacy [2]: did not alter the virus genome levels detected in lungs; also recorded: not effective at inhibiting SARS-CoV-2 | Cq of one male mouse with lower than expected virus genome loads ([2]; likely failure of challenge or RNA recovery): 38 | EC90 [3]: 2.1 µM | Effect on cell viability [4]: No effect on cell viability was seen at any concentration | SI: Selectivity Index (CC50/EC50) ([5]; Neutral Red in Vero E6 cells): >1.8 | EC50 [5]: 56 µM | CC50 at 3 days [6]: > 100 µM | EC50 [7]: 0.98 µM | EC50 [7, 18]: ~1 µM | toxicology profile [8]: favorable toxicology profile | EC50 [9]: 0.38 µM | clinical signs of irritation or intolerability [10]: No clinical signs of irritation or intolerability | Kp [11]: ~20 | Kp at 8 h [11]: ~12 | concentration at 1 h [11, 19]: 41.8 ng/mL | concentration at 3 h [11, 19]: 18 ng/mL | concentration at 8 h [11, 19]: 13.3 ng/mL | concentration at 1 h [11, 20]: 32.5 ng/mL | concentration at 3 h [11, 20]: 18.5 ng/mL | concentration at 8 h [11, 20]: 11.9 ng/mL | genotoxicity / mitotoxicity [12]: not genotoxic or mitotoxic | EC50 ([13]; HAE cells donor code yellow, 8 point dose-response curve, read-out: EC50): 0.94 µM | EC50 ([13]; Severe acute respiratory syndrome coronavirus 2, Epithelial cell, read-out: average EC50, SARS-CoV-2 replication): 0.9 µM | EC50 ([13]; Severe acute respiratory syndrome coronavirus 2, HAE, HAE cells donor code blue, 5 point dose-response curve, read-out: EC50): 0.55 µM | EC50 ([13]; Severe acute respiratory syndrome coronavirus 2, HAE, HAE cells donor code purple, 5 point dose-response curve, read-out: EC50): 0.38 µM | EC50 ([13]; Severe acute respiratory syndrome coronavirus 2, HAE, HAE cells donor code yellow, 4 point dose-response curve, read-out: EC50): 0.31 µM | EC50 ([13]; Severe acute respiratory syndrome coronavirus 2, HAE, HAE cells donor code yellow, 5 point dose-response curve, read-out: EC50): 0.16 µM | EC50 ([13]; Severe acute respiratory syndrome coronavirus 2, HAE, HAE cells donor code yellow, 7 point dose-response curve, read-out: EC50): 0.35 µM | EC50 ([13]; Severe acute respiratory syndrome coronavirus 2, HAE, HAE cells donor code yellow, 8 point dose-response curve, read-out: EC50): 1.1 µM | EC50 ([13]; Severe acute respiratory syndrome coronavirus 2, HAE, mean of the HAE cell determinations, read-out: Mean SARS-CoV-2 EC50): 0.54 µM | EC50 ([13]; mean of the HAE cell determinations, read-out: Mean SARS-CoV-2 EC50): 0.54 µM | EC50 [14]: 1.01 µM | EC50 [14, 18]: ~1 µM | generally well-tolerated dose [15]: up to 2400 mg | Lung tissue Compound 1 concentration, Middle lobe [16, 21]: 1323 pmol/g and 988 pmol/g and 1061 pmol/g | Lung tissue Compound 1 concentration, PC lobe [16, 21]: 986 pmol/g and 673 pmol/g and 430 pmol/g | Lung tissue Compound 1 concentration, Superior lobe [16, 21]: 1867 pmol/g and 1219 pmol/g and 1212 pmol/g | Lung tissue Compound 1 concentration, Inferior lobe [16, 22]: 209 pmol/g and 93 pmol/g and 110 pmol/g | Lung tissue Compound 1 concentration, Left lobe [16, 22]: 106 pmol/g and 116 pmol/g and 140 pmol/g | Lung tissue Compound 1 concentration, Superior lobe [16, 22]: 398 pmol/g and 167 pmol/g and 305 pmol/g | Lung tissue Compound 1 concentration, Middle lobe ([16]; 5 mg Compound 1 aerosol, 8 hr post-dose): 73 pmol/g and 137 pmol/g and 99 pmol/g | Plasma Compound 1 Concentration ([16]; 1 hr post-dose): 39.1 ng/mL and 53.7 ng/mL | Plasma Compound 1 Concentration ([16]; 3 hr post-dose): 20.8 ng/mL and 14.8 ng/mL | Plasma Compound 1 Concentration ([16]; 8 hr post-dose): 15.4 ng/mL and 12.6 ng/mL | CC50 at 3 days [17]: > 100 µM

NC(=O)c1cn([C@@H]2O[C@H](CO)[C@@H](O)[C@H]2O)c2ncnc(N)c12 [Sangivamycin, reference compound]
EC90 [3]: 0.12 µM | SI: Selectivity Index (CC50/EC50) ([5]; Neutral Red in Vero E6 cells): 1.9 | EC50 ([5]; Neutral Red in Vero E6 cells, day 3 post-infection): 0.007 µM | CC50 at 3 days [6]: 0.01 µM | CC50 at 3 days [17]: 0.12 µM
